# US12173018B2, “Penicillin-binding protein inhibitors” (priority 2018, dated 2024)
# pEC50: −log10 of the molar value. Where a name gives a salt, the structure may show the parent alone. Read-outs that look alike come from different tables or passages of the source.
# How the values were obtained:
# [1] = system: E. coli DH5α empty pLBII vector control strain; assay: microbe, parasite or virus in culture; assay type: cell-based, Escherichia coli; details: Escherichia coli, read-out: Microbiological Activity (MIC in mg/L), E. coli DH5α/pLBII
# Description: (§1) Briefly, cryo-preserved bacterial cultures of challenge strains are streaked for isolation on appropriate agar medium, in this case Mueller Hinton II agar. Following incubation to allow growth of the colonies, plates are sealed with parafilm and stored refrigerated for up to two weeks. For preparation of assay inoculum and to ensure low variability, at least 5 colonies are picked from the agar plates with an inoculating loop and aseptically transferred to a culture tube containing 3 mL of Mueller-Hinton Broth (supplemented with divalent cations to required levels based on Manufacturers' certification). The broth culture is grown for 3-5 hours at 37° C. with shaking at 200 rpm. Meanwhile, 2-fold serial dilutions of test compounds are conducted in a 96 well plate with a final volume of 75 μL per well at 2-fold the final desired concentration. After the dilution plates are set up the growing cultures are then diluted in a cuvette containing MH II broth and the optical density is measured at 600 nm. The Inoculum is diluted such that 75 μL of this culture in Mueller-Hinton Broth results in a starting bacterial concentration of 5×10^5 CFU/mL when added to the dilution plates. The plates are incubated for 16-20 hours at 37° C. The MIC values are read visually as the lowest concentration well with no bacterial growth.
# To determine if test compounds were affected by CTX-M15, the most abundant extended spectrum […] in clinical settings worldwide, the inhibition of the growth of an engineered strain of Escherichia coli harboring CTX-M15 was tested. This strain was constructed by cloning the gene encoding CTX-M15 into the NdeI and BamHI restriction endonuclease sites of plasmid pLBII, placing the gene(s) under the control of the Lac promoter. The constructed expression plasmid for CTX-M15 was used to transform competent E. coli DH5α cells to make the engineered strain, including an empty pLBII vector control strain. The classic cell based broth microdilution MIC assay was employed as described above with the addition of control antibiotics, known to be degraded by β-lactamases (Ceftazidime, piperacillin and piperacillin+tazobactam).
# E. coli ATCC 25922 = assay: Broth microdilution MIC, E. coli ATCC 25922; assay type: cell-based; details: Escherichia coli
# Outline: (§2)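 Colonies from Mueller Hinton II agar were grown 3-5 hours at 37° C in cation-supplemented broth, adjusted by OD600, then added to 2-fold compound dilutions at 5×10^5 CFU/mL. After 16-20 hours at 37° C, MICs were scored visually.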
# E. coli AG100 = assay: Broth microdilution MIC, E. coli AG100 (wild-type parent); assay type: cell-based; details: Escherichia coli; wild-type parent E. coli AG100, broth microdilution; read-out: MIC E. coli AG100
# Outline: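 Broth microdilution in cation-supplemented Mueller-Hinton broth, 2-fold serial compound dilutions, inoculum 5×10^5 CFU/mL from 3-5 h log culture.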
# E. coli 901C = assay: microbe, parasite or virus in culture; assay type: cell-based; details: Escherichia coli; hyper-permeable E. coli 901C, broth microdilution; read-out: MIC E. coli 901C
# Outline: as §2
# E. coli AG100A = assay: microbe, parasite or virus in culture; assay type: cell-based; details: Escherichia coli, read-out: MIC E. coli AG100A
# Outline: as §2
# E. coli D22 = assay: microbe, parasite or virus in culture; assay type: cell-based; details: Escherichia coli; hyper-permeable E. coli D22, broth microdilution; read-out: MIC E. coli D22
# Outline: as §2
# K. pneumoniae SI-117 = assay: microbe, parasite or virus in culture; assay type: cell-based; details: Klebsiella pneumoniae, SI117, read-out: MIC K. pneumoniae SI-117
# Outline: as §2
# K. pneumoniae UMM = assay: microbe, parasite or virus in culture; assay type: cell-based; details: Klebsiella pneumoniae; K. pneumoniae UMM producing SHV-5 and KPC-2; read-out: MIC K. pneumoniae UMM
# Outline: as §2
# [2] = system: P. aeruginosa (ΔmexAB-oprM); assay: microbe, parasite or virus in culture; assay type: cell-based; details: Pseudomonas aeruginosa, read-out: MIC P. aeruginosa ΔmexAB-OprM
# Outline: as §2
# P. aeruginosa ATCC 35151 = assay: microbe, parasite or virus in culture; assay type: cell-based; details: Pseudomonas aeruginosa, ATCC35151; hyper-permeable P. aeruginosa ATCC 35151; read-out: MIC P. aeruginosa ATCC 35151
# Outline: as §2
# K. pneumoniae 848844 = assay: microbe, parasite or virus in culture; assay type: cell-based, Klebsiella pneumoniae; details: Klebsiella pneumoniae; K. pneumoniae 848844 producing SHV-11 and KPC-2; read-out: MIC K. pneumoniae 848844
# Outline: as §2
# P. aeruginosa PAO1 = assay: Broth microdilution MIC, P. aeruginosa PAO1; assay type: cell-based; details: Pseudomonas aeruginosa
# Description: (§3) To determine the ability of test compounds to potentiate the inhibition of the growth of bacterial strains, classic cell based broth microdilution minimum inhibitory concentration (MIC) assays were employed. MIC assays are performed according to CLSI methods except where otherwise noted (CLSI, 2011 and CLSI, 2009). The reference type strain E. coli ATCC 25922, the wild-type parent strain E. coli AG100, the hyper-permeable E. coli 901C and E. coli D22 and the E. coli AG100A strain lacking the acrAB efflux pump encoding genes were used to determine the ability of the PBP inhibitors to penetrate the outer membrane of gram-negative bacteria and inhibit bacterial growth. […] The P. aeruginosa PAO1, P. aeruginosa ATCC 27853 and A. baumannii ATCC 19606, along with the hyper-permeable P. aeruginosa ATCC 35151 and an engineered efflux pump-compromised strain of P. aeruginosa (ΔmexAB-oprM) were used to determine the ability of PBP inhibitors to penetrate the outer membrane of P. aeruginosa and A. baumannii and assess antibacterial activity against these important gram-negative organisms.
# as §1
# A. baumannii ATCC 19606 = assay: Broth microdilution MIC, A. baumannii ATCC 19606; assay type: cell-based; details: Acinetobacter baumannii
# Description: as §3, §1
# [3] = system: N. gonorrhoeae ATCC 49226; assay: Liquid broth MIC, N. gonorrhoeae ATCC 49226; assay type: cell-based; details: Neisseria gonorrhoeae, ATCC49226; N. gonorrhoeae ATCC 49226, liquid broth; read-out: Minimum Inhibitory Concentration, N. gonorrhoeae ATCC 49226
# Outline: (§4)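 Broth microdilution, 2-fold compound series; start inoculum 5×10^5 CFU/mL (OD600-adjusted, GC broth pH 7.2, Kellogg's suppl.). 40-42 h, 36° C, 5% CO2. MIC = lowest conc., no visible growth.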
# N. gonorrhoeae FA1090 = assay: Liquid broth MIC, N. gonorrhoeae FA1090; assay type: cell-based; details: Neisseria gonorrhoeae; N. gonorrhoeae FA1090, liquid broth; read-out: Minimum Inhibitory Concentration, N. gonorrhoeae FA1090
# Outline: as §4
# N. gonorrhoeae WHO F = assay: Liquid broth MIC, N. gonorrhoeae WHO F; assay type: cell-based; details: Neisseria gonorrhoeae; N. gonorrhoeae WHO F, liquid broth; read-out: Minimum Inhibitory Concentration, N. gonorrhoeae WHO F
# Outline: as §4
# N. gonorrhoeae FA19 = assay: Liquid broth MIC, N. gonorrhoeae FA19; assay type: cell-based; details: Neisseria gonorrhoeae; N. gonorrhoeae FA19, liquid broth; read-out: Minimum Inhibitory Concentration, N. gonorrhoeae FA19
# Outline: as §4
# [4] = system: engineered strain of Escherichia coli harboring CTX-M15; assay: microbe, parasite or virus in culture; assay type: cell-based; details: Escherichia coli, read-out: Microbiological Activity (MIC in mg/L), E. coli DH5α/pLBII-CTX-M15, engineered strain producing CTX-M15
# E. coli PBP3 = E. coli PBP3 (Escherichia coli (strain K12), UniProt P0AD68); assay: E. coli PBP3 Bocillin-FL fluorescence polarization competition binding assay
# Outline: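 FP competition: 1.5 μM PBP, 0.1 μM Bocillin-FL, cpd 0–1000 μM; 50 mM Hepes pH 8.0/300 mM NaCl/5% glycerol. Read 490/520 nm immediately after Bocillin-FL addition, 60 min. EC50 = cpd conc. lowering probe binding.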
# [5] = ATCC25922, read-out: MIC E. coli 25922
# [6] = PAO1, read-out: MIC P. aeruginosa PAO1
# [7] = ATCC19606, read-out: MIC A. baumannii ATCC 19606
# [8] = ATCC25922, E. coli ATCC 25922, broth microdilution, read-out: MIC E. coli 25922
# [9] = P. aeruginosa PAO1, broth microdilution, read-out: MIC P. aeruginosa PAO1
# [10] = ATCC19606, A. baumannii ATCC 19606, broth microdilution, read-out: MIC A. baumannii ATCC 19606
# E. coli PBP3, sequence (P0AD68 whole entry): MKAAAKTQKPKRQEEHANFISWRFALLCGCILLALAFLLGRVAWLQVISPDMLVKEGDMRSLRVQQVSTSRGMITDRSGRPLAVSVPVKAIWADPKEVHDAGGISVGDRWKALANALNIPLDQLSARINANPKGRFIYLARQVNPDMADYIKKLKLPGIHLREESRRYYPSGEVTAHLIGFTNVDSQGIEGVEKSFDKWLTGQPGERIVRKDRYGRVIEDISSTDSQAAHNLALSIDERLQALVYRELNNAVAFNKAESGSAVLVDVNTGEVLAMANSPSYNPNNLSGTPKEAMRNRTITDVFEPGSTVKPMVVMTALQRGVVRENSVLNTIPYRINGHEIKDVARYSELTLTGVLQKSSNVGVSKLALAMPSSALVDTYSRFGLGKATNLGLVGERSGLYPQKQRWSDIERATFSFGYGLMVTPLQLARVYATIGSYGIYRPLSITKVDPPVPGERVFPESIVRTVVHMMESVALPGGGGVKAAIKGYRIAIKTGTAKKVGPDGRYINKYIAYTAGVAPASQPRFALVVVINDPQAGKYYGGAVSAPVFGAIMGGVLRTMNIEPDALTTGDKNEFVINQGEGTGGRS
compound,measurement,setting,value
"CCN1CCN(C(=O)NCC2(C(=O)N[C@H]3Cc4cccc(C(=O)O)c4OB3O)CNC2)C(=O)C1=O [Example 53, (R)-3-(3-((4-ethyl-2,3-dioxopiperazine-1-carboxamido)methyl)azetidine-3-carboxamido)-2-hydroxy-3,4-dihydro-2H-benzo[e][1,2]oxaborinine-8-carboxylic acid, trifluoroacetic acid salt]",MIC,[1],> 512 mg/L
"CS(=O)(=O)N1CCN(C(=O)NC(C(=O)N[C@H]2Cc3cccc(C(=O)O)c3OB2O)c2ccc(O)c(O)c2Cl)C1=O (stereo partly drawn) [Example 58, (3R)-3-(2-(2-chloro-3,4-dihydroxyphenyl)-2-(3-(methylsulfonyl)-2-oxoimidazolidine-1-carboxamido)acetamido)-2-hydroxy-3,4-dihydro-2H-benzo[e][1,2]oxaborinine-8-carboxylic acid]",MIC,E. coli ATCC 25922; [5],32 to 64 µg/mL
same,MIC,E. coli AG100,32 to 64 µg/mL
same,MIC,E. coli 901C,2 to 4 µg/mL
same,MIC,E. coli AG100A,8 to 16 µg/mL
same,MIC,E. coli D22,8 to 16 µg/mL
same,MIC,K. pneumoniae SI-117,> 128 µg/mL
same,MIC,K. pneumoniae UMM,8 to 16 µg/mL
same,MIC,[2],< 0.25 µg/mL
same,MIC,P. aeruginosa ATCC 35151,< 0.25 µg/mL
same,MIC,K. pneumoniae 848844,8 to 16 µg/mL
same,MIC,P. aeruginosa PAO1; [6],8 to 16 µg/mL
same,MIC,A. baumannii ATCC 19606; [7],2 to 4 µg/mL
same,MIC,[3],4 to 8 µg/mL
same,MIC,N. gonorrhoeae FA1090,4 to 8 µg/mL
same,MIC,N. gonorrhoeae WHO F,1 to 2 µg/mL
same,MIC,N. gonorrhoeae FA19,4 to 8 µg/mL
same,MIC,[4],32 to 64 mg/L
"NS(=O)(=O)c1ccc([C@@H](NC(=O)N2CCN(CCF)C(=O)C2=O)C(=O)N[C@H]2Cc3cccc(C(=O)O)c3OB2O)cc1O [Example 170, (R)-3-((R)-2-(4-(2-fluoroethyl)-2,3-dioxopiperazine-1-carboxamido)-2-(3-hydroxy-4-sulfamoylphenyl)acetamido)-2-hydroxy-3,4-dihydro-2H-benzo[e][1,2]oxaborinine-8-carboxylic acid]",MIC,E. coli ATCC 25922; [5],8 to 16 µg/mL
same,MIC,E. coli AG100,8 to 16 µg/mL
same,MIC,E. coli 901C,< 0.25 µg/mL
same,MIC,E. coli AG100A,2 to 4 µg/mL
same,MIC,E. coli D22,0.5 to 1 µg/mL
same,MIC,K. pneumoniae SI-117,32 to 64 µg/mL
same,MIC,K. pneumoniae UMM,8 to 16 µg/mL
same,MIC,[2],8 to 16 µg/mL
same,MIC,P. aeruginosa ATCC 35151,< 0.25 µg/mL
same,MIC,K. pneumoniae 848844,32 to 64 µg/mL
same,MIC,P. aeruginosa PAO1; [6],> 128 µg/mL
same,MIC,A. baumannii ATCC 19606; [7],> 128 µg/mL
same,MIC,[3],4 to 8 µg/mL
same,MIC,N. gonorrhoeae FA1090,0.25 to 0.5 µg/mL
same,MIC,N. gonorrhoeae WHO F,< 0.125 µg/mL
same,MIC,N. gonorrhoeae FA19,4 to 8 µg/mL
"NCCN1CCN(C(=O)N[C@@H](C(=O)N[C@H]2Cc3cccc(C(=O)O)c3OB2O)c2ccc(O)c(O)c2Cl)C(=O)C1=O [Example 220, (R)-3-((R)-2-(4-(2-aminoethyl)-2,3-dioxopiperazine-1-carboxamido)-2-(2-chloro-3,4-dihydroxyphenyl)acetamido)-2-hydroxy-3,4-dihydro-2H-benzo[e][1,2]oxaborinine-8-carboxylic acid]",MIC,E. coli ATCC 25922; [8],8 to 16 µg/mL
same,MIC,E. coli AG100,0.5 to 1 µg/mL
same,MIC,E. coli 901C,0.5 to 1 µg/mL
same,MIC,E. coli AG100A,0.5 to 1 µg/mL
same,MIC,E. coli D22,0.5 to 1 µg/mL
same,MIC,K. pneumoniae SI-117,2 to 4 µg/mL
same,MIC,K. pneumoniae UMM,0.5 to 1 µg/mL
same,MIC,[2],< 0.25 µg/mL
same,MIC,P. aeruginosa ATCC 35151,< 0.25 µg/mL
same,MIC,K. pneumoniae 848844,0.5 to 1 µg/mL
same,MIC,P. aeruginosa PAO1; [9],0.5 to 1 µg/mL
same,MIC,A. baumannii ATCC 19606; [10],< 0.25 µg/mL
same,MIC,[3],16 to 32 µg/mL
same,MIC,N. gonorrhoeae FA1090,4 to 8 µg/mL
same,MIC,N. gonorrhoeae WHO F,1 to 2 µg/mL
same,MIC,N. gonorrhoeae FA19,> 64 µg/mL
"O=C(O)c1cccc2c1OB(O)[C@@H](NC(=O)C(NC(=O)N1C[C@H]3CCCN3C(=O)C1=O)c1ccc(O)c(O)c1Cl)C2 (stereo partly drawn) [Example 232, (3R)-3-(2-(2-chloro-3,4-dihydroxyphenyl)-2-((R)-3,4-dioxooctahydropyrrolo[1,2-a]pyrazine-2-carboxamido)acetamido)-2-hydroxy-3,4-dihydro-2H-benzo[e][1,2]oxaborinine-8-carboxylic acid]",pEC50,E. coli PBP3,3.30 to 4.52
same,MIC,E. coli ATCC 25922; [8],> 128 µg/mL
same,MIC,E. coli AG100,8 to 16 µg/mL
same,MIC,E. coli 901C,8 to 16 µg/mL
same,MIC,E. coli AG100A,8 to 16 µg/mL
same,MIC,E. coli D22,8 to 16 µg/mL
same,MIC,K. pneumoniae SI-117,32 to 64 µg/mL
same,MIC,K. pneumoniae UMM,32 to 64 µg/mL
same,MIC,[2],< 0.25 µg/mL
same,MIC,P. aeruginosa ATCC 35151,< 0.25 µg/mL
same,MIC,K. pneumoniae 848844,8 to 16 µg/mL
same,MIC,P. aeruginosa PAO1; [9],32 to 64 µg/mL
same,MIC,A. baumannii ATCC 19606; [10],> 128 µg/mL
